These results are taken from patent EP2604265A1, “P2x7 antagonists as frontline or adjunctive treatment against status epilepticus” (Royal College of Surgeons in Ireland (RCSI), priority 2011, dated 2013).

The test system of series [1] is Adult male C57BL/6 mice. As to the kind of experiment: Intra-amygdala KA-induced SE in mice, EEG, drug i.c.v. immediately prior to KA. Conditions: i.c.v. co-injection immediately prior to intra-amygdala KA; vs vehicle (antibody vs control IgG); lorazepam at 40 min. It is filed as in vivo. As to the method: (§1) Adult male C57BL/6 mice (20-25 g) were obtained from Harlan UK (Blackthorn, UK). Mice were first anesthetized using isoflurane (3-5%) and maintained normothermic by means of a feedback-controlled heat blanket (Harvard Apparatus Ltd, Kent, UK). Mice were next placed in a stereotaxic frame and three partial craniectomies performed to affix cortical skull-mounted EEG electrodes (Bilaney Consultants Ltd, Sevenoaks, UK). EEG was recorded using a Grass Comet XL digital EEG (Medivent Ltd, Lucan, Ireland). A guide cannula was affixed (coordinates from Bregma: AP = 0.94; L = 2.85 mm) and the assembly fixed in place with dental cement. Anesthesia was then discontinued and freely moving mice were placed inside a clear perspex recording chamber. EEG recordings were commenced and after establishing baseline EEG for a few minutes, an injection cannula was lowered through the guide cannula for injection of kainic acid (KA) (Ocean Produce International, Nova Scotia, Canada) into the basolateral amygdala nucleus (0.3 µg in 0.2 µl phosphate-buffered saline). Non-seizure control mice underwent the same surgical procedure but received 0.2 µl intra-amygdala vehicle. Mice were killed at different time-points (1, 4, 8 or 24 h) later and perfused with saline to remove intravascular blood components. Brains were either flash-frozen whole in 2-methylbutane at […] or perfused with 4% PFA for histopathology, or dissected on ice to obtain whole hippocampus or microdissected to obtain the different hippocampal subfields (CA1, DG and CA3).
Digitized EEG recordings were analyzed off-line using manual assessment and automated software. […] The duration of high-frequency (>5 Hz) high-amplitude (>2× baseline) polyspike discharges of ≥5 s duration (HAHFDs) was counted by a reviewer blind to treatment. Further EEG analysis was performed by uploading EEG into Labchart7 software (ADInstruments) to calculate the power spectral density (total power, a measure of the input signal's power (amplitude) over frequency) EEG spectrogram (spectral power against frequency and time).
All the following drugs were purchased from Sigma-Aldrich Ireland (Arklow, Ireland) and delivered by intracerebroventricular (i.c.v.) microinjection in 2 µl volume unless otherwise specified: Adenosine 5'-triphosphate (ATP) at 100 µM, Uridine-5'-triphosphate (UTP) at 100 µM, Uridine-5'-diphosphate (UDP) at 100 µM, 2-chloro-N6-cyclopentyladenosine (CCPA) 300 nM, Pyridoxal-phosphate-6-azophenyl-2,4-disulfonate (PPADS) at 50 µM, α,β- methylene- adenosine-5-triphosphate (α,β-meATP) at 0.1 nmol, 3-O-(4-benzoyl)benzyl-ATP (Bz-ATP) at 300 µM, Brillant Blue G (BBG) at 30 nM.
Lorazepam (Ativan®, Wyeth, Taplow, U.K.) (6 mg/kg) was administered intraperitoneally (i.p.) at 40 or 60 min after KA.
Next, a model of focal-onset SE was used to evaluate the contributions of ATP-gated receptors in vivo. Mice received intra-amygdala microinjection of KA to induce SE (Fig. 2C). […] The electroencephalogram (EEG) was recorded by using cranial electrodes (lower part of Fig. 2C). Seizures were curtailed after 40 min by the injection of lorazepam to minimize morbidity and mortality.

The test system of series [2] is hippocampal neurons. As to the kind of experiment: Luciferine-luciferase luminescence assay of extracellular ATP release. The series is classed as cell-based, mouse. Conditions: primary cultures; glutamate 100 µM; NEM 500 µM pre-treatment. As to the method: Hippocampal neurons were prepared as described previously (Diaz-Hernandez et al., 2008). Briefly, hippocampi were obtained from E17 mouse embryos and, after dissection and washing three times in Ca^2+/Mg^2+-free HBSS, tissue was digested in the same solution with 0.25% trypsin for 15 min at 37°C. Hippocampi were then washed three times in Ca^2+/Mg^2+-free HBSS and dissociated with a firepolished Pasteur pipette. Cells were counted, resuspended in plating medium (MEM, 10% fetal bovine serum, 0.6% glucose) and plated at a density of 5,000 cells/cm^2 on poly-L-lysine coated coverslips (1 mg/ml). After plating, neurons were cultured for 24-72 h in neuronal culture medium (Neurobasal, B-27, glutamax-I). For biochemical experiments, hippocampal neurons were plated on polylysine-coated (1 mg/ml) 60-mm plates at a density of 200,000 cells/cm^2, and cultured for 72 h in neuronal culture medium. AraC was added at a final concentration of 5 µM after 2 days in culture. Extracellular ATP concentration was measured as previously described (Diez-Zaera et al., 2011). Neurons were grown in 6-well plates at a density of 200,000 cells/cm^2. […] In some cases, ATP release was also measured in the presence of A-438079 (1 µM). ATP concentration was determined by comparison with a calibration curve generated with ATP standards diluted in the same buffer as the samples.

In series [3] the test system is neonatal seizures. Conditions: in vivo; cited from earlier work.
In series [4] the test system is Adult male C57BL/6 mice. As to the kind of experiment: Histopathology of ipsilateral hippocampal CA3 after SE (FJB and NeuN counts). The series is classed as in vivo. Conditions: 24 h after SE; drug given prior to SE; vs vehicle. As to the method:
as §1
Flash-frozen brains in 2-methylbutane were sectioned at -20°C on a Leica cryostat and 12 µm sections collected at the level of dorsal hippocampus (-1.8 mm and - 2.9 mm from Bregma according to a mouse stereotaxic atlas (Paxinos and Franklin, 2001). Neuronal death was assessed using Fluoro-Jade B (FJB) staining, as previously described (Engel et al., 2010; Murphy et al., 2010). Briefly, sections were air-dried and post-fixed in formalin followed by hydrating through graded alcohols. Sections were then rinsed in distilled water and transferred to 0.006% potassium permanganate solution for 15 min. Sections were rinsed again and transferred to a 0.001% FJB solution according to manufacturer's recommendations (Chemicon Europe Ltd, Chandlers Ford, UK). After staining, sections were mounted in DPX (Sigma-Aldrich). For NeuN immunohistochemistry, sections were fixed and permeabilized, blocked in goat serum and incubated overnight with anti-NeuN antibodies (Millipore Ireland B.V., Tullagreen, Ireland) followed by incubation with goat anti-rabbit IgG antibodies coupled to AlexaFluor 568 (BioSciences Limited, Dun Laoghaire, Ireland). Sections were examined using a Nikon 2000s epifluorescence microscope under Ex/Em wavelengths of 472/520 nm (green) and 540 to 580/600 to 660 nm (red) and images captured using a Hamamatsu Orca 285 camera. Cell counts were the average of two adjacent sections for the CA3 subfield under 40x lens magnification by an observer blinded to treatment.

The test system of series [5] is rat models. Particulars: mifepristone before or after the onset of SE; cited from earlier work.
Series [6] concerns Adult male C57BL/6 mice. As to the kind of experiment: Refractory SE model in mice, drugs given 60 min post-KA, EEG during the next hour. The series is classed as in vivo. As to the method:
as §1
Digitized EEG recordings were analyzed off-line using manual assessment and automated software. The occurrence of high amplitude high frequency spiking during seizures is synonymous with injury-causing electrographic seizures during SE (also termed type IV electrographic seizures) (Lowenstein et al., 1991; Henshall et al., 2000). The duration of high-frequency (>5 Hz) high-amplitude (>2× baseline) polyspike discharges of ≥5 s duration (HAHFDs) was counted by a reviewer blind to treatment. Further EEG analysis was performed by uploading EEG into Labchart7 software (ADInstruments) to calculate the power spectral density (total power, a measure of the input signal's power (amplitude) over frequency) EEG spectrogram (spectral power against frequency and time).
A-438079 (3-[[5-(2,3-Dichlorophenyl)-1H-tetrazol-1-yl]methyl]pyridine hydrochloride) (50 µM) was from Tocris Biosciences (Bristol, U.K.) and the P2X7R specific antibody was from Alomone Labs (APR-008, Alomone Labs, Ltd, Jerusalem, Israel) and injected at 0.7 mg/ml. Lorazepam (Ativan®, Wyeth, Taplow, U.K.) (6 mg/kg) was administered intraperitoneally (i.p.) at 40 or 60 min after KA.
To model refractory SE, seizures were allowed to continue beyond the normal time when lorazepam is given (40 min) and instead the effects of drugs were recorded 60 min post-KA on the EEG during the next hour.

The conditions of series [7]: in vivo; cited from earlier work.

Turning to `Nc1ncnc2c1ncn2[C@@H]1O[C@H](COP(=O)(O)OP(=O)(O)OP(=O)(O)O)[C@@H](OC(=O)c2ccc(C(=O)c3ccccc3)cc2)[C@H]1O` [BzATP, 3-O-(4-benzoyl)benzyl-ATP], the “seizure time during SE (duration of HAHFDs)” value (“seizure time during SE” below) in series [1] is reported as “significant increase of seizure time”.

As to `N[C@@H](CCC(=O)O)C(=O)O` [glutamate], in series [2], the “ATP release from hippocampal neurons” value is “induced the rapid release of ATP”.

Consider `Nc1ncnc2c1ncn2C1OC(COP(=O)(O)CP(=O)(O)OP(=O)(O)O)C(O)C1O` (stereo not drawn) [α/β-methylATP, α,β-methylene-adenosine-5-triphosphate], for which the “seizure time during SE” value in series [1] was “no differences in seizure time”.

`CCC1(c2ccccc2)C(=O)NC(=O)NC1=O` [phenobarbitone]: in series [3], the “cases in which neonatal seizures are not stopped” value is on record as “over 50%”.

As to `O=c1ccn([C@@H]2O[C@H](COP(=O)(O)OP(=O)(O)O)[C@@H](O)[C@H]2O)c(=O)[nH]1` [UDP, Uridine-5'-diphosphate], in series [1], the “seizure time during SE” value is “no differences in seizure time”.

On to `O=c1ccn([C@@H]2O[C@H](COP(=O)(O)OP(=O)(O)OP(=O)(O)O)[C@@H](O)[C@H]2O)c(=O)[nH]1` [UTP, Uridine-5'-triphosphate], for which, in series [1], the “seizure time during SE” value is recorded as “no differences in seizure time”.

For `Cc1nc(N=Nc2ccc(S(=O)(=O)O)cc2S(=O)(=O)O)c(COP(=O)(O)O)c(C=O)c1O` [PPADS, Pyridoxal-phosphate-6-azophenyl-2,4-disulfonate], in series [1], the “seizure time during SE” value is reported as “only a weak, non-significant effect”. Further, in series [4], the “Counts of surviving CA3 neurons (NeuN)” value is “not protective” and the “FJB-positive cells within the CA3 subfield (neuronal death)” value is listed as “did not afford protection”.

For the compound `CC#C[C@]1(O)CC[C@H]2[C@@H]3CCC4=CC(=O)CCC4=C3[C@@H](c3ccc(N(C)C)cc3)C[C@@]21C` [mifepristone], in series [5], the efficiency of diazepam entry is “increases efficiency of diazepam”.

For the compound `O=C1Nc2ccc(Cl)cc2C(c2ccccc2Cl)=NC1O` (stereo not drawn) [lorazepam, Lorazepam], in series [6] (given 60 min after KA, 60 min recording, vs vehicle), the “total seizure time (duration of HAHFDs)” value was “failed to significantly reduce”. The “total seizure power (total EEG power)” value in series [6] (given 60 min after KA, vs vehicle) was “significant reduction”. For the same compound, in series [6] (given alone 60 min after KA, number of mice / group), the “mice continued in SE” value was 4/7. For the same compound, the reduction in power in series [6] (total power analysis, Fig. 9C, given 60 min after KA, compared to Veh) is listed as about 50%. Further, the duration of action in series [7] was 2 to 8 h.

Take `OC[C@H]1O[C@@H](n2cnc3c(NC4CCCC4)nc(Cl)nc32)[C@H](O)[C@@H]1O` [CCPA, 2-chloro-N6-cyclopentyladenosine]: the “seizure time during SE” value in series [1] is listed as “significantly reduced”.

`CCN1C(=O)C=CC1=O` [NEM, N-Ethylmaleimide]: the “ATP release from hippocampal neurons” value in series [2] was “ATP release was blocked”.

As for `Nc1ncnc2c1ncn2[C@@H]1O[C@H](COP(=O)(O)OP(=O)(O)OP(=O)(O)O)[C@@H](O)[C@H]1O` [ATP, Adenosine 5'-triphosphate], the “seizure time during SE” value in series [1] is “significantly increased”.
